Test results published in the supplement of paper PMC10920090.

Legend:
Conditions in all cases: 72 h
UT-SCC-24A [1] = assay: drug sensitivity score (DSS), cytotoxicity CellTox Green; higher = more cytotoxic; extreme values may be limits of the assay
Method: (§1)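 Targeted FIMM drug screen of 23 compounds at 5 concentrations over a 10,000-fold range in 384-well plates, 1250 cells/well, 72 h at 37 °C. Read-outs were CellTiter-Glo viability and CellTox Green cytotoxicity, normalised to DMSO and benzethonium chloride controls and summarised as drug sensitivity score (DSS). Cells stably transduced with shScramble or one of two shPPFIA1 constructs (shPPFIA1_1 TRCN0000002969, shPPFIA1_2 TRCN0000342514).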

BT-474 [2] = assay: as above
Method: as §1

UT-SCC-24A [3] = assay: drug sensitivity score (DSS), cell viability CellTiter-Glo; higher = more sensitive; extreme values may be limits of the assay
Method: as §1

BT-474 [4] = assay: as above
Method: as §1

MDA-MB-231 [5] = assay: as above
MDA-MB-231 [6] = assay: drug sensitivity score (DSS), cytotoxicity CellTox Green; higher = more cytotoxic; extreme values may be limits of the assay

Compound | drug sensitivity score (UT-SCC-24A [1]; shRNA: shPPFIA1_1) [DSS] | drug sensitivity score (UT-SCC-24A [1]; shRNA: shPPFIA1_2) [DSS] | drug sensitivity score (UT-SCC-24A [1]; shRNA: shScramble) [DSS] | drug sensitivity score (BT-474 [2]; shRNA: shPPFIA1_1) [DSS] | drug sensitivity score (BT-474 [2]; shRNA: shPPFIA1_2) [DSS] | drug sensitivity score (BT-474 [2]; shRNA: shScramble) [DSS] | drug sensitivity score (UT-SCC-24A [3]; shRNA: shPPFIA1_1) [DSS] | drug sensitivity score (UT-SCC-24A [3]; shRNA: shPPFIA1_2) [DSS] | drug sensitivity score (UT-SCC-24A [3]; shRNA: shScramble) [DSS] | drug sensitivity score (BT-474 [4]; shRNA: shPPFIA1_1) [DSS] | drug sensitivity score (BT-474 [4]; shRNA: shPPFIA1_2) [DSS] | drug sensitivity score (BT-474 [4]; shRNA: shScramble) [DSS] | drug sensitivity score (MDA-MB-231 [5]; shRNA: shPPFIA1_1) [DSS] | drug sensitivity score (MDA-MB-231 [5]; shRNA: shScramble) [DSS] | drug sensitivity score (MDA-MB-231 [6]; shRNA: shPPFIA1_1) [DSS] | drug sensitivity score (MDA-MB-231 [6]; shRNA: shScramble) [DSS]
CC(=O)Nc1cccc(-n2c(=O)n(C3CC3)c(=O)c3c(Nc4ccc(I)cc4F)n(C)c(=O)c(C)c32)c1 [Trametinib] | 18.9 | 18.4 | 7.8 | 0 | 0 | 0 | 19.6 | 18.5 | 15.4 | 0 | 0 | 0.1 | 0.7 | 12.4 | 5.3 | 12.5
COc1ccc(-c2ccc3ncc4c(c3c2)n(-c2ccc(N3CCNCC3)c(C(F)(F)F)c2)c(=O)n4C)cn1 [NVP-BGT226] | 7.9 | 6.5 | 7.8 | 2.8 | 6.2 | 4.8 | 19.4 | 20.4 | 20.7 | 9.6 | 11.3 | 14.2 | 0.8 | 17.3 | 0 | 6.4
CN[C@@H](C)C(=O)N[C@H]1CN(C(=O)CC(C)C)CC[C@H]2CC[C@@H](C(=O)NC(c3ccccc3)c3ccccc3)N2C1=O [AT-406] | 7.8 | 13.5 | 5.3 | 1.3 | 1.4 | 0.2 | 1 | 1.9 | 0 | 0 | 0 | 0 | 17 | 3.4 | 32.3 | 19.8
C#Cc1cccc(Nc2ncnc3cc(OCCOC)c(OCCOC)cc23)c1 [Erlotinib] | 17.8 | 11.4 | 8.3 | 0.8 | 1.1 | 1.2 | 20.8 | 14 | 11.9 | 2.5 | 2.9 | 3.9 | 2.8 | 4 | 0 | 0
CCC1=C[C@@H]2CN(C1)Cc1c([nH]c3ccccc13)[C@@](C(=O)OC)(c1cc3c(cc1OC)N(C)[C@H]1[C@@](O)(C(=O)OC)[C@H](OC(C)=O)[C@]4(CC)C=CCN5CC[C@]31[C@@H]54)C2 [Vinorelbine] | 8.4 | 8.4 | 13.1 | 11.1 | 13.2 | 13.8 | 12 | 18 | 15.3 | 9.2 | 10 | 18.7 | 0 | 19.9 | 7.2 | 2.7
CO[C@H]1C[C@@H]2CC[C@@H](C)[C@@](O)(O2)C(=O)C(=O)N2CCCC[C@H]2C(=O)O[C@H]([C@H](C)C[C@@H]2CC[C@@H](OC(=O)C(C)(CO)CO)[C@H](OC)C2)CC(=O)[C@H](C)/C=C(\C)[C@@H](O)[C@@H](OC)C(=O)[C@H](C)C[C@H](C)/C=C/C=C/C=C/1C [Temsirolimus] | 0 | 0 | 0 | 0 | 0 | 0 | 2.8 | 4.1 | 4.4 | 7.8 | 6.2 | 9.8 | 0 | 7.9 | 0 | 0
Cc1cc([C@@H](C)Nc2ccccc2C(=O)O)c2nc(N3CCOCC3)cc(=O)n2c1 [AZD-6482] | 2 | 1 | 0.8 | 0.2 | 0.1 | 0.1 | 2.1 | 1.9 | 1.4 | 1.5 | 1.1 | 2.1 | 4.2 | 19.8 | 0 | 0.9
CC(=O)O[C@@]12CO[C@@H]1C[C@H](O)[C@@]1(C)C(=O)[C@H](O)C3=C(C)[C@@H](OC(=O)[C@H](O)[C@@H](NC(=O)OC(C)(C)C)c4ccccc4)C[C@@](O)([C@@H](OC(=O)c4ccccc4)[C@H]21)C3(C)C [Docetaxel] | 16.2 | 15.2 | 20.1 | 20.1 | 20.5 | 20.9 | 17.3 | 18.8 | 18.7 | 16.1 | 16.8 | 20.6 | 1.3 | 16.8 | 7.3 | 8.7
COc1cc(C(=O)NC2CCN(C)CC2)c(F)cc1Nc1ncc2c(n1)N(C1CCCC1)CC(F)(F)C(=O)N2C [TAK-960] | 0 | 0 | 0 | 0 | 0 | 0 | 0 | 0 | 0 | 0 | 0 | 0 | 4.9 | 20.6 | 0 | 0.9
C[C@@H]1COC(Nc2ccc3ncnc(Nc4ccc(OCc5nccs5)c(Cl)c4)c3c2)=N1 [Varlitinib] | 10.3 | 10.1 | 4 | 3.1 | 4.5 | 3.9 | 10.7 | 11 | 9 | 8.2 | 9.3 | 10.7 | 1 | 21.3 | 0.2 | 0
CCOc1ccn(-c2ccc(F)cc2)c(=O)c1C(=O)Nc1ccc(Oc2ccnc(N)c2Cl)c(F)c1 | 0 | 0 | 0 | 0 | 0 | 0 | 0 | 0 | 0 | 0 | 0 | 0 | 0 | 21 | 0 | 0.9
CO[C@H]1C[C@@H]2CC[C@@H](C)[C@@](O)(O2)C(=O)C(=O)N2CCCC[C@H]2C(=O)O[C@H]([C@H](C)C[C@@H]2CC[C@@H](OCCO)[C@H](OC)C2)CC(=O)[C@H](C)/C=C(\C)[C@@H](O)[C@@H](OC)C(=O)[C@H](C)C[C@H](C)/C=C/C=C/C=C/1C [Everolimus] | 0 | 0 | 0 | 0 | 0 | 0 | 1.3 | 2.5 | 2.9 | 5.2 | 3.6 | 5.2 | 0 | 6.1 | 0 | 0
